According to patent US9012492B2, “Apocynin-lipoic acid conjugates and uses thereof” (priority 2011, dated 2015):

Key:
[1] = Stability in methanolic solution; format: physicochemical; settings: stock 1 mg/mL in methanol
[2] = system: dog liver microsomes (DLM); experiment: Metabolic stability using dog liver microsomes; format: in vitro ADME
Description: Table 9 summarizes the experimental conditions used in the studies of the metabolic stability of the compound of Formula (Ia) using dog liver microsomes and human liver microsomes.

rat liver microsomes = experiment: Metabolic stability using rat liver microsomes; format: in vitro ADME; settings: RLM
Description: Table 7 summarizes the experimental conditions used in the studies of the metabolic stability of the compound of Formula (Ia) using rat liver microsomes. Table 8 and FIG. 13 show the results from the studies of the metabolic stability of the compound of Formula (Ia) using rat liver microsomes. [table]

Sprague-Dawley rats = experiment: Infarct volume after transient middle cerebral artery occlusion, ischemia/reperfusion (I/R); format: in vivo, rat
Experimental: Sprague-Dawley rats were used to study the effects of (Ia) on reperfusion injury following stroke in a rodent model. The rats were anesthetized, and injected with (la) (0.01-0.1 mg/kg). After 30 minutes, occlusion of the middle cerebral artery (MCA) was performed.
The detailed methodology for permanent middle cerebral artery occlusion (MCAO) and transient (I/R) occlusion of the middle cerebral artery has been published previously.^46 Briefly, animals were placed in a David Kopf stereotaxic frame (Tujunga, Calif.), and the right middle cerebral artery (MCA) approached through a rostral-caudal incision of the skin and frontalis muscle at the approximate level of bregma. Blood flow through the MCA was impeded by the placement of surgical suture behind the MCA at three designated positions along the exposed vessel. The sutures were positioned so that the middle of each suture applied pressure to the underside of the MCA and impeded blood flow as confirmed using laser Doppler flowmetry (OxyFlo, Oxford-Optronix, Oxford, UK; Ref. 46). This three-point placement of surgical sutures produced a highly reproducible and consistent focal ischemic lesion (permanent ischemia) restricted to the prefrontal cerebral cortex. For transient I/R, the sutures were left in place for 30 min and then removed (reperfusion) to allow blood flow to return to the area for an additional 5.5 h (209 rats received I/R). In 12 rats, sutures were left in place for 6 h as a model of permanent ischemia.
To examine the effect of the compound of Formula (Ia) on I/R-induced cell death, injections of the compound of Formula (Ia) (0.01, 0.05, 0.1, or 0.5 mg/kg; 1 ml/kg iv; n=4 per group) or vehicle (25% EtOH; 1 ml/kg iv; n=6) were made 30 min prior to the onset of MCAO. The sutures were left in place for 30 min and removed. Reperfusion was allowed for 5.5 h, and the experiment was terminated.
To determine whether the compound of Formula (Ia) was neuroprotective when administered during the 30-min period of occlusion, injections of the compound of Formula (Ia) at a dose that produced optimal neuroprotection based on the dose-response-curve described above (0.1 mg/kg; 1 ml/kg iv; n=4) or vehicle (25% EtOH; 1 mi/kg iv; n=4) were made 15 min following the onset of MCAO. After a further 15 min, the sutures were removed to allow for an additional 5.5 h of reperfusion.
To examine the effect of the compound of Formula (Ia) on reperfusion injury alone, injections of the optimal dose of the compound of Formula (Ia) (0.1 mg/kg; 1 ml/kg iv; n=4 per group) or vehicle (1 ml/kg iv; n=4 or 5 per group) were made following 30 min of MCAO, immediately prior to the removal of the sutures, or 30, 60, 90, 120, or 180 min following suture removal (start of reperfusion). In all cases, the experiments were terminated following 5.5 h of reperfusion.
To determine whether the compound of Formula (Ia) required bioactivation and/or metabolism to an active intermediate to produce neuroprotection, the effect of direct intracortical injections of the compound of Formula (Ia) on infarct volume were investigated in the present model of transient occlusion (I/R). The compound of Formula (Ia) (0.01, 0.1, 0.5, or 1.0 μM in 200 n1; n=4 per group) or the same volume of vehicle (0.0125% EtOH; 200 n1; n=6) was injected into the ipsilateral hemisphere (bregma—0.3 mm, lateral—5.5 mm and depth of—3.0 mm from the dorsal surface of the brain)^47 10 min prior to suture placement followed by 30 min of MCAO and 5.5 h of reperfusion.
To examine the effect of the compound of Formula (Ia) on the change in infarct volume over the 5.5 h of reperfusion, injections of the optimal dose of the compound of Formula (Ia) (0.1 mg/kg; 1 ml/kg iv; n=4 per group) or vehicle (25% EtOH; 1 ml/kg iv; n=4) were made 30 min prior to the onset of MCAO. The sutures were left in place for 30 min. […]

COc1cc(C(C)=O)ccc1OC(=O)CCCCC1CCSS1 (centres unmarked) [compound of Formula (Ia)]
stability in methanolic solution [1]: stable | % Metabolism in 30 minutes ([2]; DLM control (without NADPH)): 0% | CLintr (mL/min/g liver) ([2]; DLM control (without NADPH)): >67 mL/min/g liver | % Metabolism in 30 minutes ([2]; DLM reaction (with NADPH)): 0% | CLintr (mL/min/g liver) ([2]; DLM reaction (with NADPH)): >67 mL/min/g liver | % Metabolism in 30 minutes (rat liver microsomes; control (without NADPH)): 0% | CLintr (mL/min/g liver) (rat liver microsomes; control (without NADPH)): >67 mL/min/g liver | % Metabolism in 30 minutes (rat liver microsomes; reaction (with NADPH)): 0% | CLintr (mL/min/g liver) (rat liver microsomes; reaction (with NADPH)): >67 mL/min/g liver | infarct volume after 5.5 h reperfusion vs vehicle (Sprague-Dawley rats; 0.1 mg/kg iv 15 min into 30-min MCAO (15 min prior to reperfusion)): significant neuroprotection | infarct volume after 5.5 h reperfusion vs vehicle (Sprague-Dawley rats; 0.1 mg/kg iv 30 min following the start of reperfusion): significant decreases in infarct volume | infarct volume following I/R vs vehicle (Sprague-Dawley rats; 0.1 mg/kg iv 30 min prior to MCAO, 30 min MCAO, 5.5 h reperfusion): significant decrease in infarct volume | mean infarct volume smaller than the vehicle group (Sprague-Dawley rats; 0.1 mg/kg iv 30 min prior to MCAO, end of 5.5 h of reperfusion): ~53% | mean infarct volume vs vehicle, time course (Sprague-Dawley rats; 0.1 mg/kg iv 30 min prior to MCAO, measured at 4 h): significantly smaller | mean infarct volume vs vehicle, time course (Sprague-Dawley rats; 0.1 mg/kg iv 30 min prior to MCAO, measured at 6 h): significantly smaller | infarct volume after 5.5 h reperfusion vs vehicle (Sprague-Dawley rats; 0.1 mg/kg iv 60 min following the start of reperfusion): significant decreases in infarct volume | infarct volume after 5.5 h reperfusion vs vehicle (Sprague-Dawley rats; 0.1 mg/kg iv 90 min following the start of reperfusion): significant decreases in infarct volume | infarct volume after 5.5 h reperfusion vs vehicle (Sprague-Dawley rats; 0.1 mg/kg iv 120 min following suture removal): did not result in a significant difference in infarct volume | infarct volume after 5.5 h reperfusion vs vehicle (Sprague-Dawley rats; 0.1 mg/kg iv 180 min following suture removal): did not result in a significant difference in infarct volume | infarct volume after 5.5 h reperfusion vs vehicle (Sprague-Dawley rats; 0.1 mg/kg iv at time 0 (start of reperfusion)): significant decreases in infarct volume | infarct volume following I/R vs vehicle (Sprague-Dawley rats; 0.5 mg/kg iv 30 min prior to MCAO, 30 min MCAO, 5.5 h reperfusion): significant decrease in infarct volume | neuroprotection (infarct volume) following I/R (Sprague-Dawley rats; 0.01, 0.05, 0.1, 0.5 mg/kg iv 30 min prior to MCAO, 30 min MCAO, 5.5 h reperfusion): dose-dependent neuroprotection | stroke infarct volume (Sprague-Dawley rats; Example 3, 0.01-0.1 mg/kg injected 30 minutes before MCA occlusion, vs ethanol vehicle): dose-dependent reduction in stroke infarct volume | dose required to produce significant neuroprotection (Sprague-Dawley rats; I/R model, iv): 0.1 mg/kg | infarct volume following I/R vs vehicle (Sprague-Dawley rats; direct intracortical preinjection 1.0 μM (200 nl) 10 min pre-MCAO): significant decrease in infarct volume | latest administration time giving significant neuroprotection, following the start of reperfusion (Sprague-Dawley rats; optimal dose (0.1 mg/kg iv)): up to 90 min
